How the values were obtained:
[1] = tested on: ABL1(F317L)-nonphosphorylated; assay: KINOMEscan; conditions: 50000 nM
Experimental: KINOMEscan™ selectivity screen
(§4) The assay was perfor med at DiscoveRx Corporation according the methods published previously5. Briefly, Kinase-tagged T7 phage strains were grown in parallel in an E. coli host derived from the BL21 strain. E. coli were grown to log-phase and infected with T7 phage from a frozen stock and incubated with shaking at 32°C until lysis (90-150 minutes). The kinases were produced in HEK-293 cells and subsequently tagged with DNA for qPCR detection. Streptavidin-coated magnetic beads were treated with biotinylated small molecule ligands to generate affinity resins for kinase
(§5) inhibitor or DMSO control was performed in polypropylene 384-well plates for 1 hr at room temperature. After wash with PBS buffer containing 0.05% Tween 20, the beads were incubated in elution buffer (PBS containing 0.05 % Tween 20 and 0.5 μM non-biotinylated affinity ligand) for 30 minutes at room temperature. The kinase concentration in the eluates was measured by qPCR.

RET = assay: KINOMEscan; conditions: 50000 nM
Experimental: KINOMEscan™ selectivity screen
as §4, §5

Akt T308 phosphorylation = assay: Western blot analysis of T308 phosphorylation; assay type: cell-based; conditions: Mus musculus, N2a, 0.5 h; Neuro 2A cells, G7 30 min then IGF 30 min
Experimental: The following criteria were applied for hit selection from the primary screen: 1, hits in robust curve classes (1/2/3) with efficacy greater than 30% were considered active; 2, these hits were filtered for donor interference; 3, hits were further filtered by reactive and promiscuous functional groups, as previously described4; 4, hits were clustered by structural similarity using Leadscope Hosted Client (Leadscope Inc., Columbus, […]
(§1) Neuro 2A cells were seeded in 12-well plates in DMEM containing 5% FBS for 24 hr.
(§2) After overnight serum starvation (in 0% FBS DMEM), cells were incubated for 30 min at 37 °C with G7 or LY294002 or Torin 1 (Sigma Aldrich) at various concentrations, or DMSO control. IGF-1 was added to each well at a final concentration of 100 ng/mL. After 30-min incubation cells were washed with cold PBS and lysed with 50 µL lysis buffer containing 1% Triton X-100 and protease/phosphatase inhibitors (Cell Signaling Technology) or RIPA buffer (Santa Cruz Biotech). […]
(§3) anti- GAPDH (14C10) antibody (#2118) (all antibodies were from Cell Signaling Technology unless indicated, 1:1000 dilution was used) at 4°C overnight, washed three times with TBS-T, then incubated with peroxidase-conjugated secondary antibody (Sigma-Aldrich) for 1 hr at room temperature. […] Band intensity was quantitated using Kodak 1D imaging analysis software. […]

EPHA7 = assay: KINOMEscan; conditions: 50000 nM
Experimental: KINOMEscan™ selectivity screen
as §4, §5

FAK = assay: KINOMEscan; conditions: 50000 nM
Experimental: KINOMEscan™ selectivity screen
as §4, §5

PLK2 = assay: KINOMEscan; conditions: 50000 nM
Experimental: KINOMEscan™ selectivity screen
(§6) Briefly, Kinase-tagged T7 phage strains were grown in parallel in an E. coli host derived from the BL21 strain. E. coli were grown to log-phase and infected with T7 phage from a frozen stock and incubated with shaking at 32°C until lysis (90-150 minutes). The kinases were produced in HEK-293 cells and subsequently tagged with DNA for qPCR detection. Streptavidin-coated magnetic beads were treated with biotinylated small molecule ligands to generate affinity resins for kinase
as §5

STK16 = assay: KINOMEscan; conditions: 50000 nM
Experimental: KINOMEscan™ selectivity screen
The kinases were produced in HEK-293 cells and subsequently tagged with DNA for qPCR detection. Streptavidin-coated magnetic beads were treated with biotinylated small molecule ligands to generate affinity resins for kinase
as §5

ULK2 = assay: KINOMEscan; conditions: 50000 nM
Experimental: KINOMEscan™ selectivity screen
as §4, §5

MAPKAPK5 = assay: KINOMEscan; conditions: 50000 nM
Experimental: KINOMEscan™ selectivity screen
as §4, §5

CAMK2B = assay: KINOMEscan; conditions: 50000 nM
Experimental: KINOMEscan™ selectivity screen
as §6, §5

MAST1 = assay: KINOMEscan; conditions: 50000 nM
Experimental: KINOMEscan™ selectivity screen
as §4, §5

MEK3 = assay: KINOMEscan; conditions: 50000 nM
Experimental: KINOMEscan™ selectivity screen
as §4, §5

TLK1 = assay: KINOMEscan; conditions: 50000 nM
Experimental: KINOMEscan™ selectivity screen
as §4, §5

p38-alpha = assay: KINOMEscan; conditions: 50000 nM
Experimental: KINOMEscan™ selectivity screen
as §6, §5

MAP3K15 = assay: KINOMEscan; conditions: 50000 nM
Experimental: KINOMEscan™ selectivity screen
as §6, §5

DDR1 = assay: KINOMEscan; conditions: 50000 nM
Experimental: KINOMEscan™ selectivity screen
as §4, §5

PIK3CA(E542K) = assay: KINOMEscan; conditions: 50000 nM
Experimental: KINOMEscan™ selectivity screen
as §4, §5

PAK6 = assay: KINOMEscan; conditions: 50000 nM
Experimental: KINOMEscan™ selectivity screen
as §6, §5

HUNK = assay: KINOMEscan; conditions: 50000 nM
Experimental: KINOMEscan™ selectivity screen
as §6, §5

TRKA = assay: KINOMEscan; conditions: 50000 nM
Experimental: KINOMEscan™ selectivity screen
as §4, §5

TGFBR1 = assay: KINOMEscan; conditions: 50000 nM
Experimental: KINOMEscan™ selectivity screen
as §4, §5

JNK2 = assay: KINOMEscan; conditions: 50000 nM
Experimental: KINOMEscan™ selectivity screen
as §4, §5

[2] = tested on: ABL1(T315I)-phosphorylated; assay: KINOMEscan; conditions: 50000 nM
Experimental: KINOMEscan™ selectivity screen
as §4, §5

TIE2 = assay: KINOMEscan; conditions: 50000 nM
Experimental: KINOMEscan™ selectivity screen
as §4, §5

PKA = assay: Western blot of PKA phosphorylation; assay type: cell-based, Mouse; conditions: Neuro 2A cells
Experimental: as §1
as §2, with “Biotech). Samples were electrophoresed in 4–12% Bis-Tris gels (Life Technologies) at 150 V using MOPS SDS running buffer. Proteins were transferred electrophoretically to a PVDF or nitrocellulose membrane. For detection of cleaved” for “Biotech).”
caspase 3 a Trans-Blot Turbo Transfer System (Bio-Rad, 25 V for 25 min) with PVDF membrane were used. […]
as §3

CLK1 = assay: KINOMEscan; conditions: 50000 nM
Experimental: KINOMEscan™ selectivity screen
as §6, §5

WNK4 = assay: KINOMEscan; conditions: 50000 nM
Experimental: as §6, §5

FLT3-autoinhibited = assay: KINOMEscan; conditions: 50000 nM
Experimental: KINOMEscan™ selectivity screen
as §4, §5

PRKCQ = assay: KINOMEscan; conditions: 50000 nM
Experimental: KINOMEscan™ selectivity screen
as §4, §5

WNK2 = assay: KINOMEscan; conditions: 50000 nM
Experimental: KINOMEscan™ selectivity screen
The assay was perfor med at DiscoveRx Corporation according the methods published previously5. […] The kinases were produced in HEK-293 cells and subsequently tagged with DNA for qPCR detection. Streptavidin-coated magnetic beads were treated with biotinylated small molecule ligands to generate affinity resins for kinase
as §5

BLK = assay: KINOMEscan; conditions: 50000 nM
Experimental: KINOMEscan™ selectivity screen
as §6, §5

KIT(L576P) = assay: KINOMEscan; conditions: 50000 nM
Experimental: KINOMEscan™ selectivity screen
as §6, §5

KIT-autoinhibited = assay: KINOMEscan; conditions: 50000 nM
Experimental: KINOMEscan™ selectivity screen
as §4, §5

ERBB2 = assay: KINOMEscan; conditions: 50000 nM
Experimental: KINOMEscan™ selectivity screen
as §4, §5

ERBB3 = assay: KINOMEscan; conditions: 50000 nM
Experimental: KINOMEscan™ selectivity screen
as §4, §5

TAK1 = assay: KINOMEscan; conditions: 50000 nM
Experimental: KINOMEscan™ selectivity screen
as §6, §5

**Q.** `Oc1cc(-c2ccccc2)c2ccccc2n1` [G7, 4-phenylquinolin-2(1H)-one] was tested. Which “Percent Control” value [1] did it give?
**A.** 94%

**Q.** What about the “Percent Control” value (RET) of the same compound?
**A.** 51%

**Q.** And the IC50 (Akt T308 phosphorylation)?
**A.** 4.9 µM

**Q.** And the “Percent Control” value (EPHA7)?
**A.** 89%

**Q.** And the “Percent Control” value (FAK)?
**A.** 93%

**Q.** What about the “Percent Control” value (PLK2) of the same compound?
**A.** 78%

**Q.** What about the “Percent Control” value (STK16) of the same compound?
**A.** 75%

**Q.** What about the “Percent Control” value (ULK2) of the same compound?
**A.** 76%

**Q.** What about the “Percent Control” value (MAPKAPK5) of the same compound?
**A.** 81%

**Q.** And the “Percent Control” value (CAMK2B)?
**A.** 92%

**Q.** What about the “Percent Control” value (MAST1) of the same compound?
**A.** 100%

**Q.** And the “Percent Control” value (MEK3)?
**A.** 81%

**Q.** And the “Percent Control” value (TLK1)?
**A.** 59%

**Q.** What about the “Percent Control” value (p38-alpha) of the same compound?
**A.** 83%

**Q.** And the “Percent Control” value (MAP3K15)?
**A.** 71%

**Q.** And the “Percent Control” value (DDR1)?
**A.** 84%

**Q.** And the “Percent Control” value (PIK3CA(E542K))?
**A.** 82%

**Q.** What about the “Percent Control” value (PAK6) of the same compound?
**A.** 87%

**Q.** And the “Percent Control” value (HUNK)?
**A.** 70%

**Q.** And the “Percent Control” value (TRKA)?
**A.** 65%

**Q.** And the “Percent Control” value (TGFBR1)?
**A.** 100%

**Q.** And the “Percent Control” value (JNK2)?
**A.** 68%

**Q.** And the “Percent Control” value [2]?
**A.** 64%

**Q.** What about the “Percent Control” value (TIE2) of the same compound?
**A.** 100%

**Q.** What about the “phosphorylation (activation status) of PKA” value (PKA) of the same compound?
**A.** did not alter

**Q.** What about the “Percent Control” value (CLK1) of the same compound?
**A.** 69%

**Q.** What about the “Percent Control” value (WNK4) of the same compound?
**A.** 88%

**Q.** And the “Percent Control” value (FLT3-autoinhibited)?
**A.** 54%

**Q.** And the “Percent Control” value (PRKCQ)?
**A.** 81%

**Q.** And the “Percent Control” value (WNK2)?
**A.** 84%

**Q.** And the “Percent Control” value (BLK)?
**A.** 79%

**Q.** And the “Percent Control” value (KIT(L576P))?
**A.** 22%

**Q.** And the “Percent Control” value (KIT-autoinhibited)?
**A.** 77%

**Q.** What about the “Percent Control” value (ERBB2) of the same compound?
**A.** 98%

**Q.** What about the “Percent Control” value (ERBB3) of the same compound?
**A.** 88%

**Q.** What about the “Percent Control” value (TAK1) of the same compound?
**A.** 61%
